Experimental data: ChEMBL document CHEMBL1201862, “PubChem BioAssay data set” (2004)
Several values for one entry are separate records, joined by “and”; a condition that tells them apart may be missing. Equal values may be shown once.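 Test compounds were applied to cells in 96-well plates for 48 hours at 5 doses. GI50 = concentration required for 50% inhibition of growth.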 Activity calls are given as the source filed them. Cut-off read from the data, not from the text of the source: active = GI50 up to about 1.1 µM and inactive = higher.

Tests used:
Assay in all cases: inhibition of tumour cell growth, NCI panel, 48 h
BT-549 = tested on: BT-549
CAKI-1 = tested on: CAKI-1
DLD-1 = tested on: DLD-1
DMS-114 = tested on: DMS-114
DMS-273 = tested on: DMS-273
DU-145 = tested on: DU-145
HOP-18 = tested on: HOP-18
HOP-92 = tested on: HOP-92
Hs-578T = tested on: Hs-578T
KM-20L2 = tested on: KM-20L2
LXFL 529 = tested on: LXFL 529
M19-MEL = tested on: M19-MEL
MCF7 = tested on: MCF7
MDA-MB-231 = tested on: MDA-MB-231
MDA-MB-435 = tested on: MDA-MB-435
MDA-N = tested on: MDA-N
NCI-H522 = tested on: NCI-H522
NCI/ADR-RES = tested on: NCI/ADR-RES
PC-3 = tested on: PC-3
RPMI-8226 = tested on: RPMI-8226
RXF 393 = tested on: RXF 393
SNB-78 = tested on: SNB-78
T47D = tested on: T47D
UACC-257 = tested on: UACC-257
XF498 = tested on: XF498
786-0 = tested on: 786-0
A549 = tested on: A549
ACHN = tested on: ACHN
CCRF-CEM = tested on: CCRF-CEM
COLO 205 = tested on: COLO 205
EKVX = tested on: EKVX
HCT-116 = tested on: HCT-116
HCT-15 = tested on: HCT-15
HL-60 = tested on: HL-60
HOP-62 = tested on: HOP-62
HT-29 = tested on: HT-29
IGROV-1 = tested on: IGROV-1
K562 = tested on: K562
KM12 = tested on: KM12
LOX IMVI = tested on: LOX IMVI
M14 = tested on: M14
MOLT-4 = tested on: MOLT-4
NCI-H226 = tested on: NCI-H226
NCI-H23 = tested on: NCI-H23
NCI-H460 = tested on: NCI-H460
OVCAR-3 = tested on: OVCAR-3
OVCAR-4 = tested on: OVCAR-4
OVCAR-5 = tested on: OVCAR-5
OVCAR-8 = tested on: OVCAR-8
SF-268 = tested on: SF-268
SF-295 = tested on: SF-295
SF-539 = tested on: SF-539
SK-MEL-28 = tested on: SK-MEL-28
SK-MEL-2 = tested on: SK-MEL-2
SK-MEL-5 = tested on: SK-MEL-5
SK-OV-3 = tested on: SK-OV-3
SN12C = tested on: SN12C
SNB-19 = tested on: SNB-19
SNB-75 = tested on: SNB-75
SR = tested on: SR
SW-620 = tested on: SW-620
TK-10 = tested on: TK-10
U-251 = tested on: U-251
UACC-62 = tested on: UACC-62
UO-31 = tested on: UO-31

Measured: GI50

CN(C)CCNC(=O)c1cccc2cc([N+](=O)[O-])ccc12
inactive: BT-549 3.56 µM | DU-145 2.86 µM | Hs-578T 1.46 µM | MDA-MB-231 1.34 µM | MDA-MB-435 2.23 µM | MDA-N 1.98 µM | NCI/ADR-RES 1.39 µM | T47D 2.79 µM
active: CAKI-1 0.519 µM | DLD-1 0.217 µM | DMS-114 0.217 µM | DMS-273 0.123 µM | HOP-18 0.697 µM | HOP-92 0.249 µM | KM-20L2 0.111 µM | LXFL 529 0.271 µM | M19-MEL 0.279 µM | MCF7 0.608 µM | NCI-H522 0.685 µM | PC-3 0.76 µM | RPMI-8226 183 nM and 262 nM | RXF 393 0.0649 µM | SNB-78 0.22 µM | UACC-257 0.243 µM | XF498 0.252 µM

N#C/C(=C/Sc1ccccc1)C(=O)O
inactive: 786-0 22.6 µM | A549 17.4 µM | ACHN 27.6 µM | CAKI-1 27.3 µM | CCRF-CEM 9.25 µM | COLO 205 20.9 µM | DLD-1 36 µM | DMS-114 15.1 µM | DMS-273 22.2 µM | EKVX 40.7 µM | HCT-116 17.4 µM | HL-60 34.4 µM | HOP-18 > 100 µM | HOP-62 43.9 µM | HOP-92 57.7 µM | HT-29 24.7 µM | IGROV-1 17.9 µM | K562 43.1 µM | KM-20L2 30.1 µM | KM12 19.1 µM | LOX IMVI 10.6 µM | LXFL 529 21.2 µM | M14 22 µM | M19-MEL 23.3 µM | MOLT-4 14.9 µM | NCI-H226 23.3 µM | NCI-H23 45.1 µM | NCI-H460 25.7 µM | NCI-H522 10.9 µM | OVCAR-3 27.1 µM | OVCAR-4 40.7 µM | OVCAR-5 29.6 µM | OVCAR-8 17 µM | RPMI-8226 24.5 µM | RXF 393 14.3 µM | SF-268 8.59 µM | SF-295 37.3 µM | SF-539 18.2 µM | SK-MEL-28 24.5 µM | SK-MEL-2 24.7 µM | SK-MEL-5 29.6 µM | SK-OV-3 59.4 µM | SN12C 20 µM | SNB-19 56.2 µM | SNB-75 19.2 µM | SNB-78 18 µM | SR > 100 µM | SW-620 41.2 µM | TK-10 38.7 µM | U-251 13.5 µM | UACC-257 34.4 µM | UACC-62 26 µM | UO-31 12.6 µM | XF498 41.8 µM
21.9 µM: HCT-15
